Drawing on ChEMBL document CHEMBL5365443, “Synthesis and biological evaluation of simplified ajudazol derivatives reveal potent 5-lipoxygenase inhibition and considerable apoptotic activity in neuroblastoma cells” (Bioorg Med Chem Lett, 2023), this text covers half-life, IC50 and Activity for five compounds.

As usually defined, the half-life is the time in which the quantity being followed falls by half. By IC50 is commonly meant the midpoint of a concentration-inhibition curve.

Data set [1] in a line: Drug degradation in methanol assessed as half life. Type of data set: ADME.
A further data set deals with 1321N1. In words: Antiproliferative activity against human 1321N1 cells assessed as inhibition of cell growth by MTT assay. It is filed as functional, cell-based.
Data set [2] has as its system B104. In words: Antiproliferative activity against rat B104 cells assessed as reduction in cell growth at 10 to 1000 nM. Type of data set: functional, cell-based. Conditions: dose 10-1000 nM.
The test system of another data set is SH-SY5Y. Description: Antiproliferative activity against human SH-SY5Y cells assessed as reduction in cell growth at 10 to 1000 nM. Type of data set: functional, cell-based. Conditions: dose 10-1000 nM.
In data set [3] the target is T1, Polyunsaturated fatty acid 5-lipoxygenase (Homo sapiens, UniProt P09917).
T1 sequence (P09917 whole entry): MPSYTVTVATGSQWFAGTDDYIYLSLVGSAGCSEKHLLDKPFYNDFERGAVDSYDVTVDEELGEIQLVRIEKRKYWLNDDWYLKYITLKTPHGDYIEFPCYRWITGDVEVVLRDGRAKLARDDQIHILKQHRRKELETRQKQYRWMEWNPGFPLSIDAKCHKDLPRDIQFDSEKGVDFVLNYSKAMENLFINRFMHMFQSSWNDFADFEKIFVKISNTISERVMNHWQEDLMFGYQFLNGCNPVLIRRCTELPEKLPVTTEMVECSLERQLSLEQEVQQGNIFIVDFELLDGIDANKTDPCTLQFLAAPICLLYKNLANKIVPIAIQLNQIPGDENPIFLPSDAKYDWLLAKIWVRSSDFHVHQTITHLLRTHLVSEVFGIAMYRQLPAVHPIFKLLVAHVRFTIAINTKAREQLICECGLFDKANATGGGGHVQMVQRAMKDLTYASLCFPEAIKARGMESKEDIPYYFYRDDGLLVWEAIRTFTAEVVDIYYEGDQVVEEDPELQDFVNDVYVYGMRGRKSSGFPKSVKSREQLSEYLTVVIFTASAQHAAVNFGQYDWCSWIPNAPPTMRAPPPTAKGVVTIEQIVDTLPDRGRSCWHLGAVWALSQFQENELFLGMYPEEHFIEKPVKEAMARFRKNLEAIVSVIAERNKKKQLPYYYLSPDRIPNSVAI
In words: Inhibition of 5-LO in human neutrophils. Type of data set: cell-based, Neutrophil.

The subject of data set [4] is B104. Description: Induction of apoptosis in rat B104 cells assessed as DNA fragmentation at 10 uM by DNA laddering assay. Type of data set: functional, cell-based.
In data set [5] the target is T1, Polyunsaturated fatty acid 5-lipoxygenase. Description: Inhibition of 5-LO (unknown origin).
Another data set concerns the target T2, Prostaglandin E synthase (Homo sapiens, UniProt O14684).
T2 sequence (O14684 whole entry): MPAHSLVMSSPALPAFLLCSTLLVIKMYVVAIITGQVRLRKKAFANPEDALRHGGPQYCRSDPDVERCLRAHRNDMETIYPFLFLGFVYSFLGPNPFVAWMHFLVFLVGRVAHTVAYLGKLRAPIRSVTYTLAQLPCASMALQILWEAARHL
Description: Inhibition of mPGES-1 (unknown origin).

The test system of data set [6] is B104. Description: Induction of apoptosis in rat B104 cells assessed as DNA fragmentation at 100 uM by DNA laddering assay. It is filed as functional, cell-based.
Data set [7] relates to B104. Description: Antiproliferative activity against rat B104 cells assessed as reduction in cell growth by MTT assay. It is filed as functional, cell-based. A general note: Formazan colour is commonly taken as a measure of viable cells.
Data set [8] deals with B104. Description: Upregulation of […] mRNA expression in rat B104 cells. Type of data set: functional, cell-based.
The subject of data set [9] is B104. In words: Upregulation of NADH mRNA expression in rat B104 cells. Type of data set: functional, cell-based.
The test system of data set [10] is B104. In words: Effect on NADH:UQ oxidoreductase expression in rat B104 cells. Type of data set: functional, cell-based.
For data set [11], the system named is B104. In words: Upregulation of LDH mRNA expression in rat B104 cells. Type of data set: functional, cell-based.
The test system of data set [12] is B104. In words: Upregulation of ICDH mRNA expression in rat B104 cells. Type of data set: functional, cell-based.
Data set [13] deals with B104. Description: Upregulation of LDH level in rat B104 cells at 10 nM. Type of data set: functional, cell-based.
Data set [14] concerns B104. Description: Upregulation of ICDH level in rat B104 cells at 10 nM. Type of data set: functional, cell-based.
The subject of data set [15] is B104. Description: Upregulation of OGDH level in rat B104 cells at 10 nM. Type of data set: functional, cell-based.

Calls of active or inactive are those of the source. The calls are words filed in the database; no cut-off is given here.

In the case of `C=C(C/C=C\C=C/CC/C=C/CN(C)C(=O)/C=C(\C)OC)c1nc(C[C@@H](C)[C@H]2OC(=O)c3c(ccc(C)c3O)[C@@H]2O)co1`, in data set [1], the half-life was approximately 168 h. Also, the IC50 in the data set with 1321N1 was determined as 9.4 µM; in [3] it was 2.5 µM; in [5] it was 1.1 µM; at Prostaglandin E synthase, 3.2 µM. Also, the result in the data set on B104 [2], in the data set with SH-SY5Y, with B104 [4] and in the data set with B104 [7] was Active. Also, the result with B104 [6] was inactive.

In the case of `C=C(I)CCO[Si](CC)(CC)CC`, the outcome in the data set with B104 [8], with B104 [9], with B104 [10] and in the data set on B104 [12] was Active. Further, the outcome in the data set with B104 [11] was inactive.

As for `C=C(C/C=C\C=C/CC/C=C/CN(C)C(=O)/C=C(\C)OC)c1ncco1`, the IC50 is 4.3 µM with 1321N1, more than 30 µM in [3], 24.5 µM in data set [5] and more than 30 µM on Prostaglandin E synthase.

For the compound `C=C(C/C=C\C=C/CC/C=C/CN(C)C(=O)/C=C(\C)OC)c1nc(C[C@H](C)[C@@H]2CC[C@@H](C)C[C@H]2O)co1`, the outcome in the data set on B104 [13] and with B104 [6] was inactive. Moreover, the half-inhibitory concentration (IC50) in the data set with 1321N1 was found to be 3.3 µM; in data set [3], 5.2 µM; in data set [5], 1 µM; against Prostaglandin E synthase, 18.6 µM. Besides, the outcome in the data set with B104 [2], in the data set on B104 [14], with SH-SY5Y, with B104 [4], with B104 [15] and in the data set on B104 [7] was Active.

`CO/C(C)=C/C(=O)N(C)C/C=C/CC/C=C\C=C/C[C@@H](C)c1nc(C[C@@H](C)[C@H]2OC(=O)c3c(ccc(C)c3O)[C@@H]2O)co1`: the IC50 is 1.6 µM in data set [3] and 6.9 µM in data set [5].
